Test system: Unknown protein yeast genes
Test: DNA chip mRNA expression in yeast, unknown protein yeast genes (Table 1)
Assay type: cell-based, Saccharomyces cerevisiae S288C
Procedure, shortened: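 Measured as treated-to-untreated fluorescence ratio on a full-genome yeast DNA chip. Cells (S288C, YPD, 25° C.) were exposed in log phase for two hours to one chemical, dosed to curb growth without killing.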

SMILES: [Cl][Hg][Cl] [(3), HgCl2]
- The level of expressed mRNA in the presence of chemical substance/The level of expressed mRNA in the absence of chemical substance (yeast gene YAL053W, incubated two hours with chemical substance): 1.3
- The level of expressed mRNA in the presence of chemical substance/The level of expressed mRNA in the absence of chemical substance (yeast gene YBL048W): 2.3
- The level of expressed mRNA in the presence of chemical substance/The level of expressed mRNA in the absence of chemical substance (yeast gene YBL107C): 0.4
- The level of expressed mRNA in the presence of chemical substance/The level of expressed mRNA in the absence of chemical substance (yeast gene YDL072C, incubated two hours with chemical substance): 3.5
- The level of expressed mRNA in the presence of chemical substance/The level of expressed mRNA in the absence of chemical substance (yeast gene YDL204W, incubated two hours with chemical substance): 4.8
- The level of expressed mRNA in the presence of chemical substance/The level of expressed mRNA in the absence of chemical substance (yeast gene YDL222C, incubated two hours with chemical substance): 1.5
- The level of expressed mRNA in the presence of chemical substance/The level of expressed mRNA in the absence of chemical substance (yeast gene YDR330W, incubated two hours with chemical substance): 1.2
- The level of expressed mRNA in the presence of chemical substance/The level of expressed mRNA in the absence of chemical substance (yeast gene YDR411C, incubated two hours with chemical substance): 1.8
- The level of expressed mRNA in the presence of chemical substance/The level of expressed mRNA in the absence of chemical substance (yeast gene YDR511W, incubated two hours with chemical substance): 0.9
- The level of expressed mRNA in the presence of chemical substance/The level of expressed mRNA in the absence of chemical substance (yeast gene YDR545W, incubated two hours with chemical substance): 0.6
- The level of expressed mRNA in the presence of chemical substance/The level of expressed mRNA in the absence of chemical substance (yeast gene YEL001C, incubated two hours with chemical substance): 1.4
- The level of expressed mRNA in the presence of chemical substance/The level of expressed mRNA in the absence of chemical substance (yeast gene YER004W, incubated two hours with chemical substance): 1.9
- The level of expressed mRNA in the presence of chemical substance/The level of expressed mRNA in the absence of chemical substance (yeast gene YER035W, incubated two hours with chemical substance): 1.6
- The level of expressed mRNA in the presence of chemical substance/The level of expressed mRNA in the absence of chemical substance (yeast gene YER079W, incubated two hours with chemical substance): 1.9
- The level of expressed mRNA in the presence of chemical substance/The level of expressed mRNA in the absence of chemical substance (yeast gene YER106W, incubated two hours with chemical substance): 1.3
- The level of expressed mRNA in the presence of chemical substance/The level of expressed mRNA in the absence of chemical substance (yeast gene YER158C, incubated two hours with chemical substance): 0.9
- The level of expressed mRNA in the presence of chemical substance/The level of expressed mRNA in the absence of chemical substance (yeast gene YER163C, incubated two hours with chemical substance): 1.2
- The level of expressed mRNA in the presence of chemical substance/The level of expressed mRNA in the absence of chemical substance (yeast gene YER175C, incubated two hours with chemical substance): 1.3
- The level of expressed mRNA in the presence of chemical substance/The level of expressed mRNA in the absence of chemical substance (yeast gene YFL006W, incubated two hours with chemical substance): 1.6
- The level of expressed mRNA in the presence of chemical substance/The level of expressed mRNA in the absence of chemical substance (yeast gene YFL010C, incubated two hours with chemical substance): 1.3
- The level of expressed mRNA in the presence of chemical substance/The level of expressed mRNA in the absence of chemical substance (yeast gene YFL024C): 1.1
- The level of expressed mRNA in the presence of chemical substance/The level of expressed mRNA in the absence of chemical substance (yeast gene YFL032W, incubated two hours with chemical substance): 1.6
- The level of expressed mRNA in the presence of chemical substance/The level of expressed mRNA in the absence of chemical substance (yeast gene YGL037C, incubated two hours with chemical substance): 6.5
- The level of expressed mRNA in the presence of chemical substance/The level of expressed mRNA in the absence of chemical substance (yeast gene YGL047W, incubated two hours with chemical substance): 1.6
- The level of expressed mRNA in the presence of chemical substance/The level of expressed mRNA in the absence of chemical substance (yeast gene YGL053W, incubated two hours with chemical substance): 1.2
- The level of expressed mRNA in the presence of chemical substance/The level of expressed mRNA in the absence of chemical substance (yeast gene YGL121C): 1.4
- The level of expressed mRNA in the presence of chemical substance/The level of expressed mRNA in the absence of chemical substance (yeast gene YGL199C, incubated two hours with chemical substance): 1.7
- The level of expressed mRNA in the presence of chemical substance/The level of expressed mRNA in the absence of chemical substance (yeast gene YGR101W, incubated two hours with chemical substance): 1.2
- The level of expressed mRNA in the presence of chemical substance/The level of expressed mRNA in the absence of chemical substance (yeast gene YGR110W): 2.2
- The level of expressed mRNA in the presence of chemical substance/The level of expressed mRNA in the absence of chemical substance (yeast gene YGR130C, incubated two hours with chemical substance): 0.6
- The level of expressed mRNA in the presence of chemical substance/The level of expressed mRNA in the absence of chemical substance (yeast gene YGR154C, incubated two hours with chemical substance): 2.2
- The level of expressed mRNA in the presence of chemical substance/The level of expressed mRNA in the absence of chemical substance (yeast gene YGR221C, incubated two hours with chemical substance): 0.9
- The level of expressed mRNA in the presence of chemical substance/The level of expressed mRNA in the absence of chemical substance (yeast gene YHR138C, incubated two hours with chemical substance): 2.2
- The level of expressed mRNA in the presence of chemical substance/The level of expressed mRNA in the absence of chemical substance (yeast gene YHR199C, incubated two hours with chemical substance): 3.2
- The level of expressed mRNA in the presence of chemical substance/The level of expressed mRNA in the absence of chemical substance (yeast gene YIL023C, incubated two hours with chemical substance): 2.1
- The level of expressed mRNA in the presence of chemical substance/The level of expressed mRNA in the absence of chemical substance (yeast gene YIL041W, incubated two hours with chemical substance): 2.1
- The level of expressed mRNA in the presence of chemical substance/The level of expressed mRNA in the absence of chemical substance (yeast gene YIL087C, incubated two hours with chemical substance): 3.4
- The level of expressed mRNA in the presence of chemical substance/The level of expressed mRNA in the absence of chemical substance (yeast gene YJL057C, incubated two hours with chemical substance): 1.6
- The level of expressed mRNA in the presence of chemical substance/The level of expressed mRNA in the absence of chemical substance (yeast gene YJL066C, incubated two hours with chemical substance): 1.2
- The level of expressed mRNA in the presence of chemical substance/The level of expressed mRNA in the absence of chemical substance (yeast gene YJL082W, incubated two hours with chemical substance): 2.4
- The level of expressed mRNA in the presence of chemical substance/The level of expressed mRNA in the absence of chemical substance (yeast gene YJL151C, incubated two hours with chemical substance): 3.2
- The level of expressed mRNA in the presence of chemical substance/The level of expressed mRNA in the absence of chemical substance (yeast gene YJL152W, incubated two hours with chemical substance): 1.8
- The level of expressed mRNA in the presence of chemical substance/The level of expressed mRNA in the absence of chemical substance (yeast gene YJL161W, incubated two hours with chemical substance): 1.5
- The level of expressed mRNA in the presence of chemical substance/The level of expressed mRNA in the absence of chemical substance (yeast gene YJL171C, incubated two hours with chemical substance): 2.8
- The level of expressed mRNA in the presence of chemical substance/The level of expressed mRNA in the absence of chemical substance (yeast gene YJR008W, incubated two hours with chemical substance): 1.2
- The level of expressed mRNA in the presence of chemical substance/The level of expressed mRNA in the absence of chemical substance (yeast gene YJR054W, incubated two hours with chemical substance): 0.3
- The level of expressed mRNA in the presence of chemical substance/The level of expressed mRNA in the absence of chemical substance (yeast gene YKL071W): 5.4
- The level of expressed mRNA in the presence of chemical substance/The level of expressed mRNA in the absence of chemical substance (yeast gene YKL086W, incubated two hours with chemical substance): 2.4
- The level of expressed mRNA in the presence of chemical substance/The level of expressed mRNA in the absence of chemical substance (yeast gene YKL151C, incubated two hours with chemical substance): 1.7
- The level of expressed mRNA in the presence of chemical substance/The level of expressed mRNA in the absence of chemical substance (yeast gene YKL153W, incubated two hours with chemical substance): 2.0

From patent US8192962B2, “Processes for detecting toxic substances” (Daikin Industries, Ltd., priority 2001, dated 2012)
